# Tests used:
# [1] = target: T1, human muscarinic receptors (M3) (Homo sapiens, UniProt P20309); test: Muscarinic receptor radioligand binding assay ([3H]-NMS); conditions: membranes expressing human M3 receptor, read-out: Binding potency (M3 binding potencies, Ki values)
# T1 construct: purchased
# Protocol: Radioligand binding studies utilising [^3H]-N-methyl scopolamine ([^3H]-NMS) and commercially available cell membranes expressing the human muscarinic receptors (M2 and M3) were used to assess the affinity of muscarinic antagonists for M2 and M3 receptors. Membranes in TRIS buffer were incubated in 96-well plates with [^3H]-NMS and M3 antagonist at various concentrations for 3 hours. Membranes and bound radioligand were then harvested by filtration and allowed to dry overnight. Scintillation fluid was then added and the bound radioligand counted using a Canberra Packard Topcount scintillation counter.
# [2] = target: T2, human β2 adrenergic receptor (Homo sapiens, UniProt P07550); test: β-Adrenergic receptor radioligand binding assay ([125I]-Iodocyanopindolol)
# T2 construct: purchased
# T2 sequence (P07550 whole entry): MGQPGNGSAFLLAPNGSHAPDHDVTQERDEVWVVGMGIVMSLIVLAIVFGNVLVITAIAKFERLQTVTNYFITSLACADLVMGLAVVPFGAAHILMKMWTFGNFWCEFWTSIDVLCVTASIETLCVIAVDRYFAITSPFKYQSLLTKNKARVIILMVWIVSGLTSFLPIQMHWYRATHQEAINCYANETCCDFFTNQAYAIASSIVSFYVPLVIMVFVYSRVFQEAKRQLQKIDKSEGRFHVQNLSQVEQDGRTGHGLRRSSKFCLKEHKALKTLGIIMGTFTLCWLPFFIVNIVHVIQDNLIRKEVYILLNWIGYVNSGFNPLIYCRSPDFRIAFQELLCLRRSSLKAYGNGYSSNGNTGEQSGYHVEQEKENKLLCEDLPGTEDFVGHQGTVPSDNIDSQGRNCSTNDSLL
# Protocol: Radioligand binding studies utilising [^125I]-Iodocyanopindolol and commercially available cell membranes expressing the human β2 adrenergic receptor were used to assess the affinity of antagonists for β2-adrenergic receptor. Membranes and SPA-beads were incubated with [^125I]-Iodocyanopindolol and β2 antagonist at various concentrations for 3 hours at ambient temperature in TRIS buffer. The assay was performed in 96-well plates which were read using the Wallac Microbeta counter.
# T1 sequence (P20309 whole entry): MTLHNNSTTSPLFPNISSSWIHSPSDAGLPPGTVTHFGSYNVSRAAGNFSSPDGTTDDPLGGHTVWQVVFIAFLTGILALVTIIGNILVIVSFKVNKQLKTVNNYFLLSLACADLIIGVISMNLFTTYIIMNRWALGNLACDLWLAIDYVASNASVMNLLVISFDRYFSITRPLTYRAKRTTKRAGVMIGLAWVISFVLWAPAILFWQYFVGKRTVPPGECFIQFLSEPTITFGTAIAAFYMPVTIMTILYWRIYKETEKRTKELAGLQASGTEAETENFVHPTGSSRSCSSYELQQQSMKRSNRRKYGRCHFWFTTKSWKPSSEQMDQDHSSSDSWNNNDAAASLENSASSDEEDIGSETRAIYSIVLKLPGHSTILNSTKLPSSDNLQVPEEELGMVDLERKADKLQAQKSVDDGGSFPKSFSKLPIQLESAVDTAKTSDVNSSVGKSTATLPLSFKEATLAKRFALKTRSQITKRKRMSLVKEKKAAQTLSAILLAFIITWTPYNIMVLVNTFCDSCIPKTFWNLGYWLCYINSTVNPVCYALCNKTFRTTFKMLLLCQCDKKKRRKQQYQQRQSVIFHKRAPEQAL
Ki [1] [nM],Compound,Ki [2] [nM]
> 10,"CN(CCCOc1ccccc1)C1C2CCC1C(OC(=O)Nc1ccccc1-c1ccccc1)C2 (single isomer, unassigned) [Example 10, anti-Biphenyl-2-yl-carbamic acid-7-[methyl-(3-phenoxy-propyl)-amino]-bicyclo[2.2.1]hept-2-yl ester]",–
1 to 10,"CN(C)C1C2CCC1C(OC(=O)Nc1ccccc1-c1ccccc1)C2 (single isomer, unassigned) [Example 7, syn-Biphenyl-2-yl-carbamic acid 7-dimethylamino-bicyclo[2.2.1]hept-2-yl ester]",–
< 1,"C[N+](C)(CCCOc1ccccc1)C1C2CCC1C(OC(=O)C1c3ccccc3Oc3ccccc31)C2 [Example 36, anti-(1S,2R) Dimethyl-(3-phenoxy-propyl)-[2-(9H-xanthene-9-carbonyloxy)-bicyclo[2.2.1]hept-7-yl]-ammonium bromide]",–
1 to 10,"CN(CCCOc1ccccc1)C1C2CCC1C(OC(=O)C1c3ccccc3Oc3ccccc31)C2 [Example 34, anti-(1S,2R) 9H-Xanthene-9-carboxylic acid 7-[methyl-(3-phenoxy-propyl)-amino]-bicyclo[2.2.1]hept-2-yl ester]",–
–,"CN(CCCCCCCCCNC[C@H](O)c1ccc(O)c2[nH]c(=O)ccc12)[C@H]1[C@H]2CC[C@@H]1[C@H](OC(=O)C(O)(c1cccs1)c1cccs1)C2 [Example 41, Hydroxy-di-thiophen-2-yl-acetic acid (1S,2R,4S,7S)-7-({9-[(R)-2-hydroxy-2-(8-hydroxy-2-oxo-1,2-dihydro-quinolin-5-yl)-ethylamino]-nonyl}-methyl-amino)-bicyclo[2.2.1]hept-2-yl ester]",< 100
< 1,"C[N+](C)(CCCOc1ccccc1)C1C2CCC1C(OC(=O)Nc1ccccc1-c1ccccc1)C2 (single isomer, unassigned) [Example 12]",–
< 1,"CN(C)C1C2CCC1C(OC(=O)Nc1ccccc1-c1ccccc1)C2 (single isomer, unassigned) [Example 2, anti-Biphenyl-2-yl-carbamic acid 7-dimethylamino-bicyclo[2.2.1]hept-2-yl ester]",–
< 1,"CN(C)C1C2CCC1C(OC(=O)Nc1ccccc1-c1ccccc1)C2 (racemic) [Example 1, (±)-anti-Biphenyl-2-yl-carbamic acid 7-dimethylamino-bicyclo[2.2.1]hept-2-yl ester]",–
> 10,"CN(CCCOc1ccccc1)C1C2CCC1C(OC(=O)Nc1ccccc1-c1ccccc1)C2 (single isomer, unassigned) [Example 9, anti-Biphenyl-2-yl-carbamic acid-7-[methyl-(3-phenoxy-propyl)-amino]bicyclo[2.2.1]hept-2-yl ester]",–
> 10,"C[N+](C)(CCCOc1ccccc1)C1C2CCC1C(OCC(O)(c1ccccc1)c1ccccc1)C2 [Example 40, anti-(1S,2R) 2-(2-Hydroxy-2,2-diphenyl-ethoxy)-bicyclo[2.2.1]hept-7-yl]-dimethyl-(3-phenoxy-propyl)-ammonium bromide]",–
< 1,"C[N+](C)(CCCOc1ccccc1)C1C2CCC1C(OC(=O)Nc1ccccc1-c1ccccc1)C2 (single isomer, unassigned) [Example 11]",–
1 to 10,"C[N+](C)(C)C1C2CCC1C(OC(=O)Nc1ccccc1-c1ccccc1)C2 (racemic) [Example 8, (±)-syn-[2-(Biphenyl-2-ylcarbamoyloxy)-bicyclo[2.2.1]hept-7-yl]-trimethyl-ammonium iodide]",–
1 to 10,"CN(C)C1C2CCC1C(OC(=O)Nc1ccccc1-c1ccccc1)C2 (single isomer, unassigned) [Example 3, anti-Biphenyl-2-yl-carbamic acid 7-dimethylamino-bicyclo[2.2.1]hept-2-yl ester]",–
1 to 10,"CN(C)C1C2CCC1C(OC(=O)Nc1ccccc1-c1ccccc1)C2 (single isomer, unassigned) [Example 6, syn-Biphenyl-2-yl-carbamic acid 7-dimethylamino-bicyclo[2.2.1]hept-2-yl ester]",–
